Reference: patent publication US20250270180A1, “MEK INHIBITORS AND THERAPEUTIC USES THEREOF” (Immuneering Corporation, priority 2020, published 2025)
Where “and” joins values, the source holds several entries; their conditions need not be identical. Equal values may be shown once.

Tests used:
A549 (KRAS-G12S) pERK = experiment: Cell-based pERK dose response study, A549
Experimental: Materials and Methods: A549 or A375 cells were seeded in 6-well plates at an appropriate seeding density on day 0. On day 2 or 3, after checking the health and confluency of cells, the media was aspirated and replaced with 1 mL media containing a predetermined concentration of compound and incubated for 2 hours. After 2 hours, the media was aspirated, and the cells washed 2 times with cold PBS. Cells were lysed on ice, with 50 uL 1×CST lysis buffer+1 mM PMSF for 5 minutes. After 5 minutes, cells were removed using a scraper and transferred to cold 1.5 mL tubes, and centrifuged for 10 min, 4° C., 14,000×g. Supernatant was gently removed and snap frozen in liquid nitrogen. Protein concentration of the lysate was determined using Bradford Reagent (analyzed using SpectraMax M2E) and diluted to 1 mg/mL or pERK or 1.5 mg/mL for pMEK analysis. […] All dilutions were in Milk-free antibody diluent.

[1] = system: A549 (KRAS G12S) pERK: total ERK; experiment: Phospho-ERK screen in A549 (KRAS G12S); format: cell-based; conditions: 10 μM for 2 hours
Experimental: Materials and Methods: A549 or A375 cells were seeded in 6-well plates at an appropriate seeding density on day 0. On day 2 or 3, after checking the health and confluency of cells, the media was aspirated and replaced with 1 mL media containing a predetermined concentration of compound and incubated for 2 hours. After 2 hours, the media was aspirated, and the cells washed 2 times with cold PBS. Cells were lysed on ice, with 50 uL 1×CST lysis buffer+1 mM PMSF for 5 minutes. After 5 minutes, cells were removed using a scraper and transferred to cold 1.5 mL tubes, and centrifuged for 10 min, 4° C., 14,000×g. Supernatant was gently removed and snap frozen in liquid nitrogen. Protein concentration of the lysate was determined using Bradford Reagent (analyzed using SpectraMax M2E) and diluted to 1 mg/mL or pERK or 1.5 mg/mL for pMEK analysis. Cell lysates were then analyzed for phosphor-ERK/total-ERK levels on a Jess system (ProteinSimple; Cat #JS3346) using the following antibodies: tERK1/2 (CST 4696; 1:50) and pERK1/2 (CST 4377; 1:50). For pMEK/tMEK, the following antibodies were used: tMEK1/2 (CST 4694; 1:15) and pMEK1/2 (CST 9154; 1:400). All dilutions were in Milk-free antibody diluent.
The results of a phospho-ERK Screen in A549 (KRAS G12S) study is described in Table 7, 7A, 7B, and 8 below.

[2] = Metabolite ID study, mouse hepatocytes; format: in vitro ADME; conditions: 10 uM compound 9, T=60 min
Experimental: (§1) Animal Studies: Compound 9 was tested using six species hepatocytes in a metabolite ID study (T=60 min).
(§2) Cryopreserved hepatocytes from a selected species were thawed and incubated in duplicate with 10 uM compound 9 in Krebs-Henseleit buffer. […] Viability of hepatocytes was >70% after thawing.
(§3) (Eppendorf 5804R). […] The disappearance of the parent compound was determined, and the formation of metabolites was evaluated. Metabolites present at >1% of total compound related material (based on peak area) were identified by interpretation of the LC-MS/MS data.
(§4) MS settings were optimized for the flow rate. Full scan spectra were acquired in combination with data dependent MS2.
(§5) The spectra obtained from all samples were screened for the presence of m/z values that are absent in the blank incubations (incubations with hepatocytes without compound and with vehicle control, and incubations of compound in buffer without hepatocytes). T=60 min incubations were used as an initial screening. All possible metabolites observed were semi-quantified by MS response (peak area). MS2 spectra were interpreted to determine possible location of the metabolism reaction. The presence of metabolites identified was compared across the selected species.

[3] = Metabolite ID study, dog hepatocytes; format: in vitro ADME; conditions: 10 uM compound 9, T=60 min
Experimental: as §1, §2, §3, §4, §5

[4] = Single dose PK profile (plasma and tumor) in Colon26 tumor bearing mice; format: in vivo; conditions: female, mouse
Experimental: Female mice (either athymic BALC/c nude, or BALB/c mice) were inoculated with a single subcutaneous injection of 0.1 ml of mouse Colon-26 cell suspension (1×10^5 cells per animal) in the right flank region. Colon26 (C26) tumor bearing mice received a single dose (3-4 mice/treatment) of vehicle (10% DMSO/90% [20% SBE-B-CD in saline], pH 5) containing compounds at indicated dose by gavage (p.o.) or intravenous administration (i.v.) and at various time points (0.16, 0.5, 1, 2, 4, 8, 12, 16, 24-hour) post dose humanely euthanized. Blood was obtained through cardiac puncture into K+EDTA tubes, mixed by inversion and centrifuged to obtain the plasma. Tissues were excised, cleaned of surrounding tissues. All samples immediately snap frozen in liquid N2 prior to LC-MS/MS analysis (using Agilent Poroshell-120 EC-C18 (4.0 μm) 2.1×50 mm, and a Water+API-4000 Electrospray MS unit). The results of this study are illustrated in FIGS. 16, and 17. Tables 11 describes a single does PK profile (plasma) and Table 12 describes a single dose PK profile (tumor).

[5] = athymic BALB/c nude or BALB/c, iv, 25 mg/kg, plasma, 25 mpk i.v.
[6] = athymic BALB/c nude or BALB/c, po, 25 mg/kg, plasma, 25 mpk p.o.
[7] = athymic BALB/c nude or BALB/c, po, 100 mg/kg, plasma, 100 mpk p.o.
[8] = iv, 25 mg/kg, plasma, 25 mpk i.v.
[9] = iv, 25 mg/kg, tumor, 25 mpk i.v.
[10] = po, 25 mg/kg, plasma, 25 mpk p.o.
[11] = po, 25 mg/kg, tumor, 25 mpk p.o.
[12] = po, 100 mg/kg, plasma, 100 mpk p.o.
[13] = po, 100 mg/kg, tumor, 100 mpk p.o.

**Q.** What does the source list for `CNS(=O)(=O)Nc1cccc(Cc2c(CN(C)C)c3ccc(OC(=O)N(C)C)cc3oc2=O)c1F` [Compound 9]?
**A.** A549 pERK:tERK ratio [10 nM; 2 hr] (A549 (KRAS-G12S) pERK; 10 nM, 2 hr): 0.62; IC50 (A549 (KRAS-G12S) pERK; Homo sapiens, A549, 12-point dose, 2 hours): 19.8 nM; pERK: total ERK (% relative to vehicle) [1]: 0.60% and 1.81%; % of total compound related material based on peak area, Mouse [2]: 97%; % of total compound related material based on peak area, Dog [3]: 96%; Tmax [4, 5]: 30 min; half-life [4, 5]: 37.8 min; bioavailability [4, 6]: 75.6%; half-life [4, 6]: 79.2 min; bioavailability [4, 7]: 192%; half-life [4, 7]: 73.2 min; AUC(0-inf) [4, 8]: 5810 ng·h/mL; AUC(0-t) [4, 8]: 5810 ng·h/mL; Cmax [4, 8]: 6520 ng/mL; AUC(0-inf) [4, 9]: 8290 ng·h/mL; AUC(0-t) [4, 9]: 8280 ng·h/mL; Cmax [4, 9]: 7790 ng/mL; Tmax [4, 9]: 30 min; half-life [4, 9]: 208 min; AUC(0-inf) [4, 10]: 4400 ng·h/mL; AUC(0-t) [4, 10]: 4390 ng·h/mL; Cmax [4, 10]: 4640 ng/mL; Tmax [4, 10]: 30 min; AUC(0-inf) [4, 11]: 4900 ng·h/mL; AUC(0-t) [4, 11]: 4890 ng·h/mL; Cmax [4, 11]: 4580 ng/mL; Tmax [4, 11]: 30 min; bioavailability [4, 11]: 59.1%; half-life [4, 11]: 76.8 min; AUC(0-inf) [4, 12]: 44600 ng·h/mL; AUC(0-t) [4, 12]: 44500 ng·h/mL; Cmax [4, 12]: 30100 ng/mL; Tmax [4, 12]: 30 min; AUC(0-inf) [4, 13]: 51700 ng·h/mL; AUC(0-t) [4, 13]: 51700 ng·h/mL; Cmax [4, 13]: 30300 ng/mL; Tmax [4, 13]: 30 min; bioavailability [4, 13]: 156%; half-life [4, 13]: 118 min
